For the experiment, the target named is DNA-(apurinic or apyrimidinic site) endonuclease (Homo sapiens, UniProt P27695). Briefly: High-Throughput Screening and IC50 Determinations. Particulars: pH 7.5; 22 °C. As to the method: The screening assay was performed using 384-well microtiter plate first spotted with test compounds. Then Ape1 in reaction buffer was added to each well. The reaction was initiated through the addition of substrate. After incubation, the final fluorescence was measured using a FLUOstar Optima plate reader (BMG Labtech GmbH, Offenburg, Germany) at excitation and emission wavelengths of 485 and 520 nm, respectively. IC50 analyses were carried out on the best hits by first plating 10-fold dilutions of each inhibitor onto 384-well plates. Using the initial rate values, percentage activity was calculated for each sample relative to a negative (DMSO only) control. The data were fitted to a sigmoidal dose-response model using Prism software (GraphPad Software, San Diego, CA).
Sequence of DNA-(apurinic or apyrimidinic site) endonuclease (P27695 whole entry): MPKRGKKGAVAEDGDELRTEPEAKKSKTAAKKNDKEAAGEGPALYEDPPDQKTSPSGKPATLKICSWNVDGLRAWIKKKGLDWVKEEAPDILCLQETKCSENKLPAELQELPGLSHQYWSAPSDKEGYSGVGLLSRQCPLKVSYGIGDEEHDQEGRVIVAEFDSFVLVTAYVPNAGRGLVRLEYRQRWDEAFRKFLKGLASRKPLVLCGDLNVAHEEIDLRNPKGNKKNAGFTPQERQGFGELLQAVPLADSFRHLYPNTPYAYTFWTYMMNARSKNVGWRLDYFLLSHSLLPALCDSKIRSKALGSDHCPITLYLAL
A word on the IC50: it is the midpoint of a concentration-inhibition curve. Low values mean greater potency in that assay, high ones weaker potency in that assay. By Ki is commonly meant a measure of affinity in units of concentration, obtained from inhibition or displacement. Consider `O=C(O)c1cc[c]([Sb](=[O])([OH])[OH])cc1[N+](=O)[O-]` [4-[dihydroxy(oxo)--stibanyl]-2-nitrobenzoic acid], for which the IC50 was determined as 4 nM and the Ki is 19 nM.
On to `O=C(O)/C=C/c1ccc[c]([Sb](=[O])([OH])[OH])c1` [(2E)-3-{3-[dihydroxy(oxo)--stibanyl]phenyl}prop-2-enoic acid], for which the half-inhibitory concentration (IC50) stood at 200 nM.
The same measure, in the same setting: the same measure for `O=C(Nc1cc[c]([Sb](=[O])([OH])[OH])cc1)c1ccccc1` [N-{4-[dihydroxy(oxo)--stibanyl]phenyl}benzamide]: 300 nM.
`CCOC(=O)CCCc1cc[c]([Sb](=[O])([OH])[OH])cc1` [ethyl 4-{4-[dihydroxy(oxo)--stibanyl]phenyl}butanoate] registered an IC50 of 17 nM and a Ki of 36 nM.

For the origin of these results see BindingDB's records for doi:10.1124/mol.107.042622 (The Johns Hopkins University, 2008).
